For test [1], the system named is active-form MMP-9. The experiment in a line: Western blot: active-form MMP-9 expression in LPS-treated NR8383 cells. The class given is cell-based, rat. Particulars: 0.01 μg/mL LPS; 12.5 μg/mL; 24 hours; vs control group. As to the method:
(§1) Rat alveolar macrophage NR8383 cells were divided into six groups and separately cultivated with the following media for 24 hours: • (1) Control group: a macrophage growth medium containing 0.01 μg/mL LPS; • (2) Positive control group: a macrophage growth medium containing 0.01 μg/mL LPS and 1 μM Dex; and • (3) Extract A group (including four sub-groups): a macrophage growth medium containing 0.01 μg/mL LPS and the extract A provided by [preparation example A-2-2], wherein the extract A is present in the four sub-groups at a concentration of 6.25, 12.5, 25 and 50 μg/mL respectively.
(§2) Thereafter, the proteins in the cells of each group were extracted and then subjected to a Western blot to measure the expression level of pro-form MMP-9 (i.e., the zymogen form of MMP-9), active-form MMP-9 and MMP-12. The relative expression level of pro-form MMP-9, active-form MMP-9 and MMP-12 of each group was calculated by using the results of the control group as a basis (i.e., the expression level of control group was served as 1-fold).
(§3) Rat alveolar macrophage NR8383 cells were divided into ten groups and separately cultivated with the following media for 24 hours:
(§4) (1) Control group: a macrophage growth medium containing 0.01 μg/mL LPS;
(§5) (2) Positive control group: a macrophage growth medium containing 0.01 μg/mL LPS and 1 μM Dex; […]

Test [2] has as its system MMP-9. The experiment in a line: Gelatin zymography: LPS-activated active expression of MMP-9 in NR8383 cells. It counts as cell-based, rat. Conditions: Table 4, LPS 1 μg/mL, 24 hours. The text has this:
As indicated above, when an inflammatory response occurs in animal's pulmonary tissue, the active inflammatory cells will secret MMPs that will destroy the pulmonary tissue structure, cause more serious pulmonary injury, and lead to the decrement in or the loss of pulmonary functions. […]
Thereafter, the medium of each group was collected and respectively subjected to the following procedures. A 10% polyacrylamide gel containing 0.2% gelatin was used to carry out the sodium dodecyl sulfate polyacrylamide gel electrophoresis (SDS-PAGE). After the electrophoresis was completed, the gel was sequentially soaked in 2.5% Triton X-100 solution for 90 minutes to remove SDS, soaked in distillation-distillation water (ddH2O) for 30 minutes, and placed in a reaction solution (50 mM Tris-HCl buffer containing 10 mM CaCl2 and 0.02% NaN3) at a temperature of 37° C. for 18 hours. After the foregoing reaction was completed, the gel was stained by a Coomassie blue staining solution, and the image of stained gel was taken and subjected to an image analysis. The image intensity (the image intensity was calculated based on the size of area and the shade of color) of highlight band (i.e., the gelatin in this area was degraded by MMPs, wherein the area locating around 95 kD molecular weight) on the gel of each group can reflect the active expression of MMP-9 of rat alveolar macrophage NR8383 cells under different conditions (the relative active expression of MMP-9 was calculated by serving the results of the blank group as 0% and serving that of the control group as 100%).
Rat alveolar macrophage NR8383 cells were divided into twenty-eight groups and separately cultivated with the following media for 24 hours: • (1) Blank group: a macrophage growth medium; • (2) Control group: a macrophage growth medium containing 1 μg/mL LPS; • (3) Positive control group: a macrophage growth medium containing 1 μg/mL LPS and 5 μM Prednisolone (a type of corticosteroid; abbreviated as “Pred”; purchased from Sigma-Aldrich); • (4) Extract C (including five sub-groups): a macrophage growth medium containing 1 μg/mL LPS and the extract C provided by [preparation example A-3-2], wherein the extract C is present in the five sub-groups at a concentration of […] respectively; • (5) Extract D (including five sub-groups): a macrophage growth medium containing 1 μg/mL UPS and the extract D provided by [preparation example A-4-2], wherein the extract D is present in the five sub-groups at a concentration of 0.78, 1.56, 3.13, 6.25 and 12.5 respectively; • (6) Extract E (including five sub-groups): a macrophage growth medium containing 1 μg/mL LPS and the extract E provided from [preparation example A-4-3], wherein the extract E is present in the five sub-groups at a concentration of 0.78, 1.56, 3.13, […], and 12.5 respectively; • (7) DATA group (including five sub-groups): a macrophage growth medium containing 1 μg/mL LPS and the dehydrotrametenolic acid (DTTA) provided by [preparation example C-1], wherein the dehydrotrametenolic acid (DTTA) is present in the five sub-groups at a concentration of 0.39, 0.78, 1.56, 3.13 and 6.25 μg/mL respectively; and • (8) PAA group (including live sub-groups): a macrophage growth medium containing 1 μg/mL LPS and the poricoic acid A (PAA) provided from [preparation example C-1], wherein the poricoic acid A (PAA) is present in the five sub-groups at a concentration of 6.25, 12.5, 25, 50 and 100 respectively.
Thereafter, the medium of each group was collected and analyzed by the analyzing procedures same as that of (1-1).

For test [3], the system named is pro-form MMP-9. The experiment in a line: Western blot: pro-form MMP-9 expression in LPS-treated NR8383 cells. It counts as cell-based, rat. Particulars: 0.01 μg/mL LPS; 12.5 μg/mL; 24 hours; vs control group. How it is done:
as §1, §2, §3, §4, §5

Test [4] deals with Mucin 5AC. The experiment in a line: Western blot: LPS-induced expression of Mucin 5AC in NCI-H929 cells. It counts as cell-based, human. Conditions: 1 μg/mL LPS, 24 hours, vs control group. The text has this: As indicated above, the hypersecretion of mucus in airway can be observed in the patients suffering from pulmonary injury-related diseases, such as chronic obstructive pulmonary disease and emphysema, and the mucus hypersecretion is associated with the overexpression of mucins in pulmonary tissue. Symptoms like the increased sputum production will occur in the patients suffering from the mucin hypersecretion in airway, and the increased sputum will accumulate in the airway and lung, thereby making the airway narrow and increasing respiratory resistance. To investigate the effects of active ingredients of FU-LING extract in regulating, preventing, and/or treating the pulmonary injury-related diseases, such as chronic obstructive pulmonary disease and emphysema, a Western blot was conducted to measure the inhibitory rate of active ingredients of FU-LING extract (tumulosic acid and poricoic acid A) on the LPS-induced expression of Mucin 5AC in human lung epithelial NCI-H929 cells.
Human lung epithelial NCI-H929 cells were divided into ten groups and separately cultivated with the following media for 24 hours:
(1) Control group: an epithelial cell growth medium containing […];
(2) Positive control group: an epithelial cell growth medium containing 1 μg/mL LPS and 10 μM Dex;
(3) TA group (including four sub-groups): an epithelial cell growth medium containing […] the tumulosic acid (TA) provided by [preparation example C-1], wherein the tumulosic acid (TA) is present in the four sub-groups at a concentration of 1.56, 3.13, 6.25 and 12.5 μg/mL respectively; and
(4) PAA group (including four sub-groups): an epithelial cell growth medium containing 1 μg/mL LPS the poricoic acid A (PAA) provided by [preparation example C-1], wherein the poricoic acid A (PAA) is present in the four sub-groups at a concentration of 6.25, 12.5, 25 and 50 μg/mL respectively.
Thereafter, the proteins in the cells of each group were extracted and then subjected to a Western blot to measure the expression level of Mucin 5AC. The relative expression level of Mucin 5AC of each group was calculated by using the results of the control group as a basis (i.e., the expression level of control group was served as 1-fold).

Test [5] relates to MMP-12. In words: Western blot: MMP-12 expression in LPS-treated NR8383 cells. It counts as cell-based, rat. Conditions: 0.01 μg/mL LPS; 12.5 μg/mL; 24 hours; vs control group. How it is done: as §1, §2, §3, §4, §5

The results in this text go back to US10973863B2, “Method for regulating, preventing and/or treating pulmonary injury” (SINPHAR PHARMACEUTICAL CO., LTD., priority 2017, dated 2021).

Some results are limits rather than exact numbers.

`C=C(CC[C@@H](C(=O)O)[C@H]1[C@H](O)C[C@@]2(C)C3=C(CC[C@]12C)[C@@]1(C)CC[C@H](O)C(C)(C)[C@@H]1CC3)C(C)C` [TA, tumulosic acid]: the “Inhibitory rate on the expression level of active-form MMP-9” value in test [1] was 100%. Moreover, the results for the “Relative active expression of MMP-9 (%)” value in test [2] (3.13 μg/mL), in test [2] (6.25 μg/mL) and in test [2] (12.5 μg/mL) were 60.6%, 28.4% and 0%, respectively. In test [3], the “Inhibitory rate on the expression level of pro-form MMP-9” value came out at 53%. The “Inhibitory rate on LPS-induced expression of Mucin 5AC” value in test [4] (1.56 μg/mL (low-dose)) is reported as “up to 75%”; in test [4] (12.5 μg/mL (high-dose)), no more than 81%. The “Inhibitory rate on the expression level of MMP-12” value in test [5] came to 45%.
